Experimental data reported in PMC12207590, “Substrate Specificity of the Organic Cation Transporters MATE1 and MATE2K and Functional Overlap with OCT1 and OCT2” (Journal of Medicinal Chemistry, 2025).
Read-outs that look alike come from different tables or passages of the source.

Tests used:
[1] = target: T1, MATE1 (Homo sapiens, UniProt Q96FL8); assay: Uptake ratio in MATE1-overexpressing HEK293 cells vs empty vector (2.5 μM, 1 min, HPLC-MS/MS); assay type: cell-based
T1 sequence (Q96FL8 1-570): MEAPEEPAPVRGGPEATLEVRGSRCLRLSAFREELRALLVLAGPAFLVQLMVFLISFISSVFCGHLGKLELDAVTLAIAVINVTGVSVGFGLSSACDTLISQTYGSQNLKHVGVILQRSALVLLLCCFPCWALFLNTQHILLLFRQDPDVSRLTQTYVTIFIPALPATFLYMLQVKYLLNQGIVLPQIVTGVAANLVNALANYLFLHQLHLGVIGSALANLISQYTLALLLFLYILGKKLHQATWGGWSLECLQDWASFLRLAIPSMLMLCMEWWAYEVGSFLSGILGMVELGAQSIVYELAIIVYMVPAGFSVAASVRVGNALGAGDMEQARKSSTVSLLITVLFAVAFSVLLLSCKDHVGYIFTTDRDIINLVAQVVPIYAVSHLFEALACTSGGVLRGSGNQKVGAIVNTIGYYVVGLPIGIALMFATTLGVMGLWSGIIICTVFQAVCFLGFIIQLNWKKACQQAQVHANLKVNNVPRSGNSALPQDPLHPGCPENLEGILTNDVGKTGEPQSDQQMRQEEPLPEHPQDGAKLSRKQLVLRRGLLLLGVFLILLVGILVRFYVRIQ

[2] = target: MATE2K (Homo sapiens, UniProt Q86VL8); assay: Uptake ratio in MATE2K-overexpressing HEK293 cells vs empty vector (2.5 μM, 1 min, HPLC-MS/MS); assay type: cell-based
MATE2K, sequence (Q86VL8 1-566 isoform Q86VL8-3): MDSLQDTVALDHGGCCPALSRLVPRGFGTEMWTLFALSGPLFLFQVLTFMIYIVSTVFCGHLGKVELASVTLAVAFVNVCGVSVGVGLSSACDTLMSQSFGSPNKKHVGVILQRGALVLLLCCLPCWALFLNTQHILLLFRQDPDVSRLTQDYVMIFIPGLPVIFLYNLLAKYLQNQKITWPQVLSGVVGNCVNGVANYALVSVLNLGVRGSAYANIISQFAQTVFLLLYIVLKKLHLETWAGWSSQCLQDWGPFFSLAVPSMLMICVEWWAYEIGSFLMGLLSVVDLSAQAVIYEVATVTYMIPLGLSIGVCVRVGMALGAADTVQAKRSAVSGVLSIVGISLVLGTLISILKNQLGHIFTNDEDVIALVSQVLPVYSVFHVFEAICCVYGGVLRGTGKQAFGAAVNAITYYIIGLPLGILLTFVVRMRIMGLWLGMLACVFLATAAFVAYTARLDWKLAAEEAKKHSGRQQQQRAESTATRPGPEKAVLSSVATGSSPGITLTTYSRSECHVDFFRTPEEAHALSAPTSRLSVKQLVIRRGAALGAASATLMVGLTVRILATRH

[3] = uptake ratio MATE1-overexpressing vs empty-vector HEK293 cells, 2.5 μM, 1 min, mean
[4] = uptake ratio MATE2K-overexpressing vs empty-vector HEK293 cells, 2.5 μM, 1 min, mean
[5] = fold uptake over empty vector, 2.5 μM, 1 min
[6] = fold uptake over empty vector, 2.5 μM, 1 min, listed as reproterol
[7] = mean ratio of uptake in MATE1-overexpressing HEK293 cells vs empty vector, 2.5 μM, 1 min
[8] = mean ratio of uptake in MATE2K-overexpressing HEK293 cells vs empty vector, 2.5 μM, 1 min

Cn1c(=O)[nH]c2nc[nH]c2c1=O [1-Methylxanthine]
MATE1 (uptake ratio) [1]: 1.08
MATE1 ratio [1]: 1.08
MATE2 (uptake ratio) [2]: 0.96
MATE2K ratio [2]: 0.96

CC(C)NCC(O)COc1cccc2ccccc12 [Propranolol (R), Propranolol]
MATE1 [1, 3]: 1.16
MATE2 [2, 4]: 1.04

Cn1c(=O)c2c(ncn2CCCNCC(O)c2cc(O)cc(O)c2)n(C)c1=O (centres unmarked) [Reproterol]
MATE1 ratio [1, 5]: 5.18
MATE1 ratio [1, 6]: 5.2
MATE1 [1, 3]: 5.18
MATE2K ratio [2, 5]: 17.96
MATE2K ratio [2, 6]: 17.9
MATE2 [2, 4]: 17.96

CC[N+](CC)(CC)CC [Tetraethyl ammonium (TEA), Tetraethyl ammonium]
MATE1 ratio in this study [1]: 25.44
MATE2K ratio in this study [2]: 6.73

CC(N)Cc1cccc(C(F)(F)F)c1 (stereo not drawn) [Norfenfluramine (+), Norfenfluramine]
MATE1 ratio [1]: 1.22
MATE2K ratio [2]: 1.45

N[C@@H](Cc1c[nH]c2ccccc12)C(=O)O [Tryptophan]
MATE1 [1]: 0.82
MATE2 [2]: 1.07

CO[C@H]1/C=C/O[C@@]2(C)Oc3c(C)c(O)c4c(O)c(c(/C=N/N5CCN(C)CC5)c(O)c4c3C2=O)NC(=O)/C(C)=C\C=C\[C@H](C)[C@H](O)[C@@H](C)[C@@H](O)[C@@H](C)[C@H](OC(C)=O)[C@@H]1C [Rifampicin]
MATE1 ratio [1, 5]: 1.02
MATE1 [1, 3]: 1.02
MATE2K ratio [2, 5]: 0.93
MATE2 [2, 4]: 0.93

CCC(NC(C)C)C(O)c1ccc(O)c(O)c1 (centres unmarked) [Isoetharine]
MATE1 ratio [1, 5]: 5.65
MATE2K ratio [2, 5]: 1.85

NCCc1c[nH]cn1 [Histamine]
MATE1 ratio [1, 5]: 19.90
MATE2K ratio [2, 5]: 1.40

N=C(N)NC(=O)Cc1c(Cl)cccc1Cl [Guanfacine]
MATE1 ratio [1, 5]: 1.60
MATE2K ratio [2, 5]: 1.37

CNC(=C[N+](=O)[O-])NCCSCc1csc(CN(C)C)n1 [Nizatidine]
MATE1 ratio [1, 5]: 11.88
MATE2K ratio [2, 5]: 10.42

C1CNCCN1 [Piperazine]
MATE1 ratio [1, 5]: 0.92
MATE2K ratio [2, 5]: 1.03

NCCCCN=C(N)N [Agmatine]
MATE1 ratio in this study ([1]; Table S1, 2.5 μM, 1 min): 1.08
MATE1 ratio [1, 5]: 1.08
MATE1 (uptake ratio) [1, 7]: 1.08
MATE2K ratio in this study ([2]; Table S1, 2.5 μM, 1 min): 1.05
MATE2K ratio [2, 5]: 1.05
MATE2 (uptake ratio) [2, 8]: 1.05

COC(=O)[C@@H]1[C@H]2C[C@H]3c4[nH]c5ccccc5c4CCN3C[C@@H]2CC[C@@H]1O [Yohimbin]
MATE1 [1, 3]: 1.11
MATE2 [2, 4]: 1.35

Oc1ccc(CC2NCCc3cc(O)c(O)cc32)cc1 (centres unmarked) [Higenamine]
MATE1 ratio [1, 5]: 14.55
MATE2K ratio [2, 5]: 11.27

COC(=O)[C@@H]1[C@H]2CC[C@@H](C[C@@H]1O)N2C [Methylecgonine]
MATE1 ratio [1]: 1.54
MATE2K ratio [2]: 1.36

Nc1cccc2c1C(=O)N(C1CCC(=O)NC1=O)C2=O (centres unmarked) [Pomalidomide]
MATE1 ratio [1, 5]: 1.08
MATE2K ratio [2, 5]: 0.89

O=C(c1ccc(OCCN2CCCCC2)cc1)c1c(-c2ccc(O)cc2)sc2cc(O)ccc12 [Raloxifene]
MATE1 ratio [1, 5]: 1.12
MATE1 [1, 3]: 1.12
MATE2K ratio [2, 5]: 1.12
MATE2 [2, 4]: 1.12

N#CC[C@H](C1CCCC1)n1cc(-c2ncnc3[nH]ccc23)cn1 [Ruxolitinib]
MATE1 ratio [1, 5]: 1.13
MATE1 [1, 3]: 1.13
MATE2K ratio [2, 5]: 0.99
MATE2 [2, 4]: 0.99

CCCCNc1ccc(C(=O)OCCN(C)C)cc1 [Tetracaine]
MATE1 [1, 3]: 1.12
MATE2 [2, 4]: 1.3

CC(C)(CO)[C@@H](O)C(=O)NCCC(=O)O [Pantothenic acid]
MATE1 ratio [1, 5]: 1.48
MATE2K ratio [2, 5]: 1.71

N[C@@H](Cc1ccccc1)C(=O)O [Phenylalanine]
MATE1 ratio [1, 5]: 0.66
MATE2K ratio [2, 5]: 1.01

CCCC(=O)OC(CC(=O)[O-])C[N+](C)(C)C (centres unmarked) [Butyrylcarnitine]
MATE1 ratio [1, 5]: 0.82
MATE1 (uptake ratio) [1, 7]: 0.82
MATE2K ratio [2, 5]: 1.09
MATE2 (uptake ratio) [2, 8]: 1.09

NCCCCCN [Cadaverine]
MATE1 (uptake ratio) [1]: 0.23
MATE1 ratio [1]: 0.23
MATE2 (uptake ratio) [2]: 0.53
MATE2K ratio [2]: 0.53
